For data set [1], the system named is MDA-MB-435S human breast cancer cells. Kind of data set: MTT assay, proliferation of MDA-MB-435S cells. It is filed as cell-based. To be noted: Homo sapiens, 72 h. As to the method:
The experiments for evaluating the antineoplasmic activities of the compounds according to the present invention were carried out, and the compounds' antineoplasmic activities in vitro was evaluated by determining the inhibitory activities thereof against the proliferation of MDA-MB-435S human breast cancer cells.
The antineoplasmic activities were determined by using the MTT assay, which is based on the metabolic reduction of 3-(4,5-dimethylthylthiazol-2-yl)-2,5-diphenyl tetrazolium bromide (MTT). The dehydrogenases, which are related to NADP (niacinamide adenine dinucleotide phosphate, coenzyme) and present in mitochondrions of living cells, can reduce the yellow MTT to an insoluble, dark purple formazan. […] After the formazan is dissolved in DMSO, the optical density is determined on an ELISA Reader at the wavelength of 550/690 nm.
(§1) The adhered MDA-MB-4355 cells in logarithmic growth phase, were digested by 0.05% trypsogen, counted and formulated into a cell suspension with a medium. After counted, the suspension was inoculated on a 96-well plate with 3000 cells and 100 μl medium per well. The inoculated 96-well plate was placed overnight in an incubator at 37 with 5% CO2 to allow the cells to adhere to the wall. On the next day, the administration of the drugs started. Before the administration, into some of the control wells, each was added 20 μl of the MTT solution (5 mg/ml) without removing the medium therein. After incubated for 3 h, the absorption at A550/690 was recorded as the initial cell concentration. For the drug wells, each was added into 100 μl of medium containing 2 μl of compound solution. For the control wells which use DMSO as background control, each was also added into 100 μl of medium containing 2 μl of DMSO. In addition, each experiment was carried out with adriamycin as the positive control. Subsequently, the 96-well plate was incubated in an incubator at 37 with 5% CO2 for 72 h. each compound was tested in triplicate wells (6 μl of compound solution was put into a sterilized eppendorf centrifuge tube, then 300 μl of medium was added and mixed well, and the mixture was distributed into 3 wells respectively), and at six concentrations which form a gradient. 3 days (72 h) later, 40 μl of MTT solution (5 mg/ml) was put into each well directly (without sucking off the medium therein), and the plate was incubated in the incubator for 3 h and then taken out. The liquid in each well was sucked off, and then 100 μl of DMSO was put into each well to dissolve the crystal completely with slight shake. The absorbance of the solution in each well was determined at 550/690 nm on an ELISA Reader as the cell density after treated with the compound. The growth inhibition of compound against breast cancer cells MDA-MB-435S was represented by the cell survival rate, and IC50 was determined from the profile of cell survival rate vs compound concentration. The calculating formula was as follows: cell survival rate=[(cells+compound)A550/690/(cells+compound vector DMSO)A550/690]×100%
In general terms: Formazan colour is commonly taken as a measure of viable cells.

Data set [2] relates to colon cancer cells HCT116. Kind of data set: MTT assay, HCT116 cells. It is filed as cell-based. To be noted: Homo sapiens, HCT-116, 72 h. As to the method:
as §1
(§2) MDA-MB-435S: human breast cancer cells; HCT116: colon cancer cells; A549: lung adenocarcinoma cells; Hela: uterine cervix cancer cells.
(§3) The tests were performed in the same manner as that of experimental example 1, except that for Hela cells, after counted, each well was seeded with 1000 cells and 100 μl of medium on a 96-well plate.

In data set [3] the test system is lung adenocarcinoma cells A549. The data set is described as follows: MTT assay, A549 cells. Type of data set: cell-based. To be noted: Homo sapiens, 72 h. The method, then: as §1, §2, §3
The subject of data set [4] is Hela uterine cervix cancer cells. The data set is described as follows: MTT assay, Hela cells. Type of data set: cell-based. As to conditions: Homo sapiens, 72 h, 1000 cells per well. As to the method: as §1, §2, §3
Data set [5] deals with A549 (Lung Cancer). Kind of data set: SRB assay, A549. Type of data set: cell-based. As to conditions: Homo sapiens, 72 h, read-out: IC50 (μM) (mean ± SD). The method, then: (§4) Experimental method: The antineoplasmic activities in vitro of the compounds were determined by SRB assay. The detailed procedure was as follows. The cells in the logarithmic growth phase were inoculated on a 96-well microculture plate with a suitable density (100 μl/well), and allowed to attach overnight, followed by addition of the compound at different concentrations to be treated for 72 h. For each concentration, the test was carried out in triplicate wells, and included control wells containing the aqueous medium of normal saline and a blank well containing all medium without cells for zeroing. After cultured overnight, the cells were treated with the compound at different concentrations for 72 h. After the treatment, the culture medium was removed, and the cells were fixed with 10% (wt/vol) trichloroacetic acid (100 μL/well) at 4° C. for 1 h. The cells were then washed with distilled water for 5 times, and died at room temperature, followed by addition of a SRB solution (4 mg/mL, dissolved in 1% glacial acetic acid) at 100 μL/well. The cells were incubated and stained at room temperature for 15 min, then washed with 1% glacial acetic acid for 5 times to remove the uncombined SRB, and died at room temperature. 100 μL of 10 mM Tris solution was added in each well, and the Optical Density (OD) were measured at a wavelength of 560 nm on a VERSMax ELISA Reader (Molecule Devices). The growth inhibition of the compound against tumor cells was calculated according to the following equation: Growth inhibition (%)=(ODcontrol−ODtreated)/ODcontrol×100%.
(§5) IC50 (the concentration of the sample compound that is required for 50% inhibition of cell growth) was calculated by using the Logit method based on the measurement, and each test was repeated for 3 times to calculate the mean value and standard deviation.

Data set [6] relates to SGC-7901 (Gastric Cancer). Kind of data set: SRB assay, SGC-7901. As to conditions: Homo sapiens, 72 h, read-out: IC50 (μM) (mean ± SD). Type of data set: cell-based. As to the method:
as §4, §5
On the technique in general: In SRB staining, fixed cells bind dye roughly in proportion to their protein.

For data set [7], the system named is HCT-116 (Colon Cancer). Kind of data set: SRB assay, HCT-116. It is filed as cell-based. To be noted: Homo sapiens, 72 h, read-out: IC50 (μM) (mean ± SD). The method, then:
as §4, §5

Data set [8] concerns HO-8910 (Ovarian Cancer). The data set is described as follows: SRB assay, HO-8910. Type of data set: cell-based. As to conditions: 72 h, read-out: IC50 (μM) (mean ± SD). The method, then: as §4, §5
For data set [9], the system named is DU145 (Prostatic Cancer). The data set is described as follows: SRB assay, DU145. To be noted: Homo sapiens, DU-145, 72 h, read-out: IC50 (μM) (mean ± SD). Type of data set: cell-based. As to the method:
as §4, §5

For data set [10], the system named is BEL-7402 (Liver Cancer). Kind of data set: SRB assay, BEL-7402. Type of data set: cell-based. As to conditions: Homo sapiens, 72 h, read-out: IC50 (μM) (mean ± SD). The method, then: as §4, §5
The test system of data set [11] is SMMC-7721 (Liver Cancer). Kind of data set: SRB assay, SMMC-7721. To be noted: Homo sapiens, 72 h, read-out: IC50 (μM) (mean ± SD). It is filed as cell-based. The method, then: as §4, §5
In data set [12] the test system is Zip177 (Liver Cancer). The data set is described as follows: SRB assay, Zip177. It is filed as cell-based. As to conditions: 72 h, read-out: IC50 (μM) (mean ± SD). The method, then: as §4, §5
Data set [13] concerns HepG2 (Liver Cancer). The data set is described as follows: SRB assay, HepG2. To be noted: Homo sapiens, 72 h, read-out: IC50 (μM) (mean ± SD). It is filed as cell-based. The method, then:
as §4, §5

Data set [14] relates to 7404 (Liver Cancer). Kind of data set: SRB assay, 7404. It is filed as cell-based. As to conditions: 72 h, read-out: IC50 (μM) (mean ± SD). The method, then: as §4, §5
Data set [15] concerns MDA-MB-435 (Breast Cancer). The data set is described as follows: SRB assay, MDA-MB-435. As to conditions: Homo sapiens, 72 h, read-out: IC50 (μM) (mean ± SD). Type of data set: cell-based. The method, then: as §4, §5
The subject of data set [16] is HPAF-II (Pancreatic Cancer). The data set is described as follows: SRB assay, HPAF-II. To be noted: Homo sapiens, 72 h, read-out: IC50 (μM) (mean ± SD). Type of data set: cell-based. The method, then: as §4, §5
Data set [17] relates to HMEC (Others). Kind of data set: SRB assay, HMEC. Type of data set: cell-based. To be noted: Homo sapiens, 72 h, read-out: IC50 (μM) (mean ± SD). As to the method: as §4, §5
Data set [18] concerns human tumor cells. As to conditions: background; cited from earlier work.
Data set [19] concerns heterograft of MDA-MB-4355 human breast cancer cells. As to conditions: background; cited from earlier work.
For data set [20] the following is noted: background; cited from earlier work.
The conditions of data set [21]: clinical study entered 2001; cited from earlier work.
The mark [22] stands for this setting: note: MDA-MB-435S, read-out: IC50 (MDA-MB-435).
The mark [23] stands for this setting: read-out: Cell Survival Rate IC50.

Where two headings read alike, the source gives them in different places.

Turning to `CO[C@@H](C(=O)N[C@@H](C)C(=O)NCCOC(=O)CCc1ccccc1)[C@H](O)[C@@H](O)[C@H](O)/C=C/C(C)(C)C` [Compound L508], the IC50 in [1] (setting [22]) came out at 398 ± 128 nM; in data set [2] it was 71 ± 7 nM; in data set [3], 76 ± 8 nM; in data set [4], 158 ± 32 nM; in data set [5] it was 0.03 ± 0.01 µM; in data set [6], 2.21 ± 0.67 µM. Also, the IC50 was 0.35 ± 0.11 µM in [7]; over 20 µM in [8]; 0.29 ± 0.06 µM in [9]; 0.33 ± 0.21 µM in [10]; 0.65 ± 0.26 µM in data set [11]; 0.4 ± 0.21 µM in [12]. In addition, the IC50 in data set [13] was 0.56 ± 0.08 µM; in data set [14] it was over 20 µM; in [15], 0.08 ± 0.01 µM; in data set [16], 1.57 ± 0.35 µM; in data set [17] it was 0.21 ± 0.02 µM.
As to `CCOC(=O)C(COC(=O)C1CCCCC1)NC(=O)[C@H](C)NC(=O)[C@H](OC)[C@H](O)[C@@H](O)[C@H](O)/C=C/C(C)(C)C` (stereo partly drawn) [Compound L558a], the IC50 in [1] (setting [22]) amounted to 201 ± 47 nM; in [1] (setting [23]), 200 nM; in data set [2] it was 51 ± 5 nM; in data set [3], 98 ± 18 nM; in [4], 24 ± 3 nM; in data set [5] it was 0.08 ± 0.02 µM. Further, the IC50 in data set [6] was 1.97 ± 0.86 µM; in data set [7], 0.58 ± 0.25 µM; in data set [8], over 20 µM; in data set [9] it was 0.14 ± 0.01 µM; in data set [10] it was 0.28 ± 0.01 µM; in data set [11], 0.41 ± 0.15 µM. The half-inhibitory concentration (IC50) in data set [12] is 0.26 ± 0.05 µM; in data set [13] it was 1.11 ± 0.49 µM; in data set [14], over 20 µM; in data set [15], 0.14 ± 0.13 µM; in [16], 2.01 ± 1.06 µM; in data set [17], 0.25 ± 0.14 µM.
For `CO[C@@H](C(=O)N[C@H]1CC[C@@H](OC(=O)C2CCCCC2)CNC1=O)[C@H](O)[C@@H](O)[C@H](O)/C=C/C(C)(C)C` [LAF389, reference compound], the IC50 in data set [1] (setting [23]) was 610 nM; in data set [5], 0.05 ± 0.01 µM; in data set [6], 4.96 ± 0.4 µM; in data set [7] it was 0.63 ± 0.18 µM; in [8] it was over 20 µM; in data set [9], 0.42 ± 0.21 µM. In addition, the IC50 is 0.56 ± 0.4 µM in data set [10]; 1.25 ± 0.76 µM in [11]; 2.79 ± 0.15 µM in data set [12]; 0.21 ± 0.09 µM in [13]; over 20 µM in data set [14]; 0.29 ± 0.02 µM in data set [15]. Moreover, the values for the IC50 in data set [16] and in [17] were 3.23 ± 2.13 µM and 0.83 ± 0.45 µM, respectively. The “activities against human tumor cells in vitro” value in [18] is listed as “comparable to Bengamide B”. Moreover, in data set [19], the “growth of heterograft in vivo” value is reported as “comparable to Bengamide B”. Also, in data set [20], the solubility entry was “good solubility”. The “side effects in clinical study” value in data set [21] was “side effects such as taste disturbance, blurred vision”. Besides, the “therapeutic effects in clinical study” value in data set [21] is on record as “did not possess the foreseen therapeutic effects”.
For `CCCCCCCCCCCCCC(=O)O[C@H]1CC[C@H](NC(=O)[C@H](OC)[C@H](O)[C@@H](O)[C@H](O)/C=C/C(C)C)C(=O)N(C)C1` [bengamide B], the “activities against human tumor cells in vitro” value in data set [18] is “nanomolar level”. Also, the “growth of heterograft in vivo” value in [19] was “remarkably depress the growth”. For the same compound, the solubility result in data set [20] is “poor solubility”.

The IC50 is the concentration that gives 50% inhibition.

The values above are taken from patent US8470763B2, “Alpha-amino-N-substituted amides, pharmaceutical composition containing them and uses thereof” (Shanghai Institute of Materia Medica Chinese Academy of …, priority 2007, dated 2013).
